In the NIST ThermoML archive (doi:10.1016/j.fluid.2006.02.001):
Numbers after ± are expanded uncertainties. Values belong to the molecule of their own block, whether it stands above or below them.

Columns and labels:
[1] = visual observation
[2] = Solid-liquid equilibrium temperature; conditions: Crystal, Closed cell
[3] = Molar enthalpy of transition or fusion; conditions: Crystal; DSC

Normal melting temperature ([1]; Crystal 1): 49.1 ± 0.5 °C
Compound: CCCCCCCCCCCCCCCCO [1-hexadecanol]

Normal melting temperature ([1]; Crystal 1): 64.52 ± 0.5 °C
Compound: CCCCCCCCCCCCCCCCCCCCO [1-eicosanol]

Normal melting temperature ([1]; Crystal 1): 57.00 ± 0.5 °C
Compound: CCCCCCCCCCCCCCCCCCO [1-octadecanol]

More lines, now with the values behind:

Compound: CCCCCCCCCCCCC [tridecane]
Normal melting temperature ([1]; Crystal): -4.14 ± 0.35 °C | Solid-liquid equilibrium temperature ([2]; 132350 kPa): 293.15 ± 0.9 K | Solid-liquid equilibrium temperature ([2]; 196230 kPa): 303.15 ± 1.2 K | Solid-liquid equilibrium temperature ([2]; 264630 kPa): 313.15 ± 1.6 K | Solid-liquid equilibrium temperature ([2]; 337550 kPa): 323.15 ± 1.9 K | Solid-liquid equilibrium temperature ([2]; 415000 kPa): 333.15 ± 2.1 K | Solid-liquid equilibrium temperature ([2]; 496960 kPa): 343.15 ± 2.5 K

Compound: CCCCCCCCCCCCCCCC [hexadecane]
Normal melting temperature ([1]; Crystal): 18.30 ± 0.25 °C

Compound: C1CCCCC1 [cyclohexane]
Normal melting temperature ([1]; Crystal): 7.0 ± 0.25 °C | Solid-liquid equilibrium temperature ([2]; 23390 kPa): 293.15 ± 0.52 K | Solid-liquid equilibrium temperature ([2]; 45610 kPa): 303.15 ± 0.89 K | Solid-liquid equilibrium temperature ([2]; 67600 kPa): 313.15 ± 1.3 K | Solid-liquid equilibrium temperature ([2]; 89340 kPa): 323.15 ± 1.7 K | Solid-liquid equilibrium temperature ([2]; 110840 kPa): 333.15 ± 2.1 K | Solid-liquid equilibrium temperature ([2]; 132100 kPa): 343.15 ± 2.5 K

Compound: CCCCCCCCCCCCCCCCCCCC [eicosane]
Normal melting temperature ([1]; Crystal): 36.36 ± 0.25 °C

Compound: CCC(=O)C(C)=O [2,3-pentanedione]
Molar enthalpy of transition or fusion [3]: 1.87 ± 0.055 kcal/mol | Normal melting temperature ([1]; Crystal 1): -52.00 ± 0.5 °C | Solid-liquid equilibrium temperature ([2]; 697870 kPa): 293.15 ± 2.6 K | Solid-liquid equilibrium temperature ([2]; 807350 kPa): 303.15 ± 2.6 K | Solid-liquid equilibrium temperature ([2]; 947230 kPa): 313.15 ± 2.5 K | Solid-liquid equilibrium temperature ([2]; 1117520 kPa): 323.15 ± 2.5 K | Solid-liquid equilibrium temperature ([2]; 1318200 kPa): 333.15 ± 2.5 K | Solid-liquid equilibrium temperature ([2]; 1549280 kPa): 343.15 ± 2.8 K
